Values after ≈ are worked out from the molar mass of the structure shown.
Columns and labels:
[1] = test system: transplanted section/host reaction (GVH); assay: Transplanted section/host reaction (GVH), spleen weighing method; type: in vivo, BDF mouse; settings: for Spleen/total body weight ± S.D. / Index (spleen/total body weight): subcutaneous, 3 days; for Spleen/total body weight ± S.D.: seventh day after transplantation; for Index (spleen/total body weight): untreated = 1.00
Experimental: This test is carried out in accordance with the spleen weighing method of Ford et al. [Ford, W. L., et al., Handbook of Experimental Immunology 30 (ed. by Weir, D. M.), Blackwell Scientific Publications, (1978), page 1]. 5×10^6 spleen cells obtained from a donor C57BL/6 mouse (male, aged 8 weeks) are transplanted into the peritoneal cavity of a BDF mouse (male, aged 7 weeks) which is the Fl hybrid receptor. At the same time, NK374186 and a control drug are dissolved in a solvent (0.25 % gum arabic) and subcutaneously injected into the dorsum of the receptor mouse. As a control, the solvent alone is also subcutaneously injected into the dorsum of the mouse. The same administration is effected on the next day and on the following day. On the seventh day after the transplantation, the spleen of the animal is weighed.

[2] = test system: Bacilli, Staphylococcus and Micrococcus; assay: Antibacterial activity, summary in words; type: cell-based; settings: on Bacilli, agar dilution method
Experimental: (§1) The antibacterial and antifungal activities of each antibiotic are expressed in minimum inhibitory concentration (MIC) determined by the agar dilution method. In the antibacterial activity test, each test microorganism is inoculated onto a Muller/Hinton medium and cultured therein at 37° C. overnight to observe the growth of the microorganism. In the antifungal activity test, each test microorganism is inoculated onto a Czapek medium and cultured therein at 27° C. for 2 to 3 days, followed by the observation of the growth of the microorganism.

[3] = Solubility; type: physicochemical
[4] = test system: mammalian cells; assay: Suppressing the growth of mammalian cells, in words; type: cell-based
[5] = test system: Li-7, A2780 and 2780^AD; assay: Cell growth suppressing activity (MTT method), all cell lines, in words; type: cell-based, human; settings: each cell line
Experimental: (§2) Cells are incubated in an RPMI 1640 medium containing 10% of fetal calf serum at 37° C. under 5% of CO2. Then these cells are sowed in a 96-well plate and pre-incubated for 1 day, followed by the addition of each test compound. The treatment with the test compound was carried out for 2 days and the activity of suppressing the cell growth was evaluated by the MTT method.

[6] = test system: Li-7; assay: Cell growth suppressing activity (MTT method); type: cell-based; settings: Li-7, human hepatic cancer, 2 days
Experimental: as §2

[7] = test system: A2780; assay: Cell growth suppressing activity (MTT method); type: cell-based; settings: A2780, human ovarian cancer, 2 days
Experimental: as §2

[8] = test system: Rhizopus hanguchao IFO 4749; assay: Antifungal activity, MIC by agar dilution method; type: cell-based; settings: Czapek medium, 27° C., 2 to 3 days
Experimental: as §1

[9] = test system: Botrytis fabae IFO 6183; assay: Antifungal activity, MIC by agar dilution method; type: cell-based; settings: Czapek medium, 27° C., 2 to 3 days
Experimental: as §1

[10] = test system: Aspergillus niger IFO 4407; assay: Antifungal activity, MIC by agar dilution method; type: cell-based; settings: Czapek medium, 27° C., 2 to 3 days
Experimental: as §1

[11] = test system: Penicillium chrysogenum IFO 8645; assay: Antifungal activity, MIC by agar dilution method; type: cell-based; settings: Czapek medium, 27° C., 2 to 3 days
Experimental: as §1

[12] = test system: Candida albicans IFO 1385; assay: Antifungal activity, MIC by agar dilution method; type: cell-based; settings: Czapek medium, 27° C., 2 to 3 days
Experimental: as §1

[13] = test system: Trycophyton mentagrophytes IFO 5466; assay: Antifungal activity, MIC by agar dilution method; type: cell-based; settings: Czapek medium, 27° C., 2 to 3 days
Experimental: as §1

[14] = test system: Mucor javanicus IFO 4569; assay: Antifungal activity, MIC by agar dilution method; type: cell-based; settings: Czapek medium, 27° C., 2 to 3 days
Experimental: as §1

[15] = test system: mouse lymphoblast formation with Con A (T cells); assay: Mouse lymphoblast formation with Con A ([^3 H]-thymidine uptake); type: cell-based, BALB/C mouse; settings: Con A 5 μg/ml, 72 hours, control = 100
Experimental: (§3) An RPMI 1640 medium containing 20% of fetal calf serum, 25 mM of Hepes buffer, 100 μg/ml of streptomycin and 100 U/ml of penicillin G is used. The incubation is carried out in a 96-well flat-bottomed microplate (COSTAR). As a mitogen, lipopolysaccharide (LPS) and concanavalin A (Con A) are used respectively at final concentrations of 100 μg/ml and 5 μg/ml.
(§4) The spleen of a BALB/C mouse (female,>20 weeks in age) is taken out and a single-cell suspension is prepared. After removing erythrocytes by hyper shock, the suspension is used as such for the treatment with LPS. For the treatment with Con A, on the other hand, the suspension is passed through a Nylon Fiber (a product of Wako Pure Chemicals, Inc.) for separating T cells. 2×10^5 /well of the spleen cells and each test compound of the concentration as specified above are added to thereby give a total volume of 0.2 ml/well, followed by incubation for 72 hours. 8 hours before the completion of the incubation, 37 KBq/well of [^3 H]-thymidine is added and the thymidine uptake in the cells is measured. The effect is evaluated based on the ratio of the [^3 H]-thymidine uptake of a test group to that of a control group ["Meneki Jikken Sosa-ho (Procedures of Immunological Tests)", ed. by Japan Assoc. of Immunol., pages 2267-2276].

[16] = test system: 2780^AD; assay: Cell growth suppressing activity (MTT method), adriamycin-resistant strain; type: cell-based, human; settings: adriamycin-resistant strain obtained from A2780, 2 days
Experimental: as §2

[17] = test system: Bacillus subtilis IAM 1072; assay: Antibacterial activity, MIC by agar dilution method; type: cell-based; settings: Muller/Hinton medium, 37° C., overnight
Experimental: as §1

[18] = test system: Micrococcus flavus ATCC 10240; assay: as above; type: cell-based; settings: Muller/Hinton medium, 37° C., overnight
Experimental: as §1

[19] = test system: Escherichia coli NIHJ; assay: as above; type: cell-based; settings: Muller/Hinton medium, 37° C., overnight
Experimental: as §1

[20] = test system: Bacillus megaterium ATCC 14945; assay: as above; type: cell-based; settings: Muller/Hinton medium, 37° C., overnight
Experimental: as §1

[21] = as above; type: cell-based; settings: Mycobacterium luteus ATCC 9341; Muller/Hinton medium, 37° C., overnight
Experimental: as §1

[22] = test system: Staphylococcus aureus FDA 209P; assay: as above; type: cell-based; settings: Muller/Hinton medium, 37° C., overnight
Experimental: as §1

[23] = test system: Escherichia coli K-12; assay: as above; type: cell-based; settings: Muller/Hinton medium, 37° C., overnight
Experimental: as §1

[24] = test system: Bacillus subtilis ATCC 6633; assay: as above; type: cell-based; settings: Muller/Hinton medium, 37° C., overnight
Experimental: as §1

[25] = test system: mouse lymphoblast formation with LPS (spleen cells); assay: Mouse lymphoblast formation with LPS ([^3 H]-thymidine uptake); type: cell-based, BALB/C mouse; settings: 72 hours, control = 100
Experimental: as §3, §4

[26] = test system: mouse lymphoblast formation with LPS and Con A; assay: Mouse lymphoblast formation with LPS and Con A, summary in words; type: cell-based, BALB/C mouse
Experimental: as §3, §4

[27] = test system: CDF-1 mice; assay: Toxicity, repeated intraperitoneal administration; type: in vivo; settings: 100 mg/kg intraperitoneal once a day for 10 days
Experimental: 100 mg/kg of NK374186A and NK374186B are intraperitoneally administered to CDF-1 mice (male, aged 8 weeks) repetitively once a day for 10 days. Each test compound is administered in the form of a solution in 3.5% DMSO+6.5% Tween+90% physiological saline.

**Q.** Which “Spleen/total body weight ± S.D.” value ([1]; 0.5 mg/kg) does the source give for C=CC(C)(C)[C@H](NC(=O)[C@H](C)[C@H](O)[C@H](C)[C@H](O)CCCCCCCCCCCCC)C(=O)N[C@H](C(=O)N[C@@H](C=O)C(=O)O)[C@@H](C)O [NK374186B] here?
**A.** 8.24 ± 1.54 ×10^-3

**Q.** What about the “Index (spleen/total body weight)” value ([1]; 0.5 mg/kg) of the same compound?
**A.** 1.74

**Q.** And the “Spleen/total body weight ± S.D.” value ([1]; 5 mg/kg)?
**A.** 11.32 ± 3.61 ×10^-3

**Q.** What about the “Index (spleen/total body weight)” value ([1]; 5 mg/kg, * printed) of the same compound?
**A.** 2.40

**Q.** What about the “Spleen/total body weight ± S.D.” value ([1]; 50 mg/kg) of the same compound?
**A.** 12.63 ± 3.37 ×10^-3

**Q.** What about the “Index (spleen/total body weight)” value ([1]; 50 mg/kg, * (A), ** (B) printed) of the same compound?
**A.** 2.67

**Q.** And the GVH reaction ([1]; in words)?
**A.** significantly enhanced

**Q.** What about the “spleen/total body weight ratio” value ([1]; in words) of the same compound?
**A.** increased depending on the dose

**Q.** And the antibacterial activity [2]?
**A.** potent antibacterial activity on Bacilli, Staphylococcus and Micrococcus

**Q.** And the solubility [3]?
**A.** soluble in lower alcohols, chloroform and ethyl acetate

**Q.** What about the “activity of suppressing the growth of mammalian cells” value [4] of the same compound?
**A.** weak activity of suppressing the growth of mammalian cells

**Q.** And the cell growth suppression [5]?
**A.** suppress the growth of each cell line

**Q.** And the IC50 [6]?
**A.** 7.0 µg/mL (≈ 10.7 µM)

**Q.** And the IC50 [7]?
**A.** 6.6 µg/mL (≈ 10.1 µM)

**Q.** And the MIC [8]?
**A.** > 100 µg/mL

**Q.** What about the MIC [9] of the same compound?
**A.** > 100 µg/mL

**Q.** What about the MIC [10] of the same compound?
**A.** > 100 µg/mL

**Q.** What about the MIC [11] of the same compound?
**A.** > 100 µg/mL

**Q.** And the MIC [12]?
**A.** > 100 µg/mL

**Q.** What about the MIC [13] of the same compound?
**A.** > 100 µg/mL

**Q.** What about the MIC [14] of the same compound?
**A.** > 100 µg/mL

**Q.** What about the “Function index, Con A” value ([15]; 0.1 μg/ml) of the same compound?
**A.** 133.7%

**Q.** What about the “Function index, Con A” value ([15]; 1 μg/ml) of the same compound?
**A.** 168.8%

**Q.** And the “Function index, Con A” value ([15]; 10 μg/ml)?
**A.** 111.6%

**Q.** And the “Function index, Con A” value ([15]; 100 μg/ml)?
**A.** 31.5%

**Q.** And the IC50 [16]?
**A.** 33 µg/mL (≈ 50.3 µM)

**Q.** What about the MIC [17] of the same compound?
**A.** 6.25 µg/mL (≈ 9.53 µM)

**Q.** What about the MIC [18] of the same compound?
**A.** 3.13 µg/mL (≈ 4.77 µM)

**Q.** What about the MIC [19] of the same compound?
**A.** > 100 µg/mL

**Q.** And the MIC [20]?
**A.** 6.25 µg/mL (≈ 9.53 µM)

**Q.** And the MIC [21]?
**A.** > 100 µg/mL

**Q.** What about the MIC [22] of the same compound?
**A.** 3.13 µg/mL (≈ 4.77 µM)

**Q.** What about the MIC [23] of the same compound?
**A.** > 100 µg/mL

**Q.** What about the MIC [24] of the same compound?
**A.** > 100 µg/mL

**Q.** What about the “Function index, LPS” value ([25]; 0.1 μg/ml, LPS 100 μg/ml) of the same compound?
**A.** 156.3%

**Q.** And the “Function index, LPS” value ([25]; 1 μg/ml, LPS 100 μg/ml)?
**A.** 156.3%

**Q.** What about the “Function index, LPS” value ([25]; 10 μg/ml, LPS 100 μg/ml) of the same compound?
**A.** 94.7%

**Q.** And the “Function index, LPS” value ([25]; 100 μg/ml)?
**A.** 0.8%

**Q.** What about the lymphoblast formation ([26]; at a concentration of 10 μg/ml or above) of the same compound?
**A.** potently suppress the same at a concentration of 10 μg/ml or above

**Q.** And the lymphoblast formation ([26]; at a lower concentration)?
**A.** promote the lymphoblast formation with LPS and Con A at a lower concentration

**Q.** And the death of mice [27]?
**A.** none of these compounds causes the death of mice

**Q.** What about the toxicity [27] of the same compound?
**A.** low toxicity

**Q.** What about the clinical conditions ([27]; versus solvent control group) of the same compound?
**A.** no difference from those of the solvent control group
